The target of data set [1] is T1, FoxA1 (Homo sapiens, UniProt P55317).
T1 construct: Full-length FoxA1 cDNA was cloned into a pHISMBP (Addgene) expression vector; made in house; host or cells: E. coli BL21 (DE3)
T1 sequence (P55317 1-472): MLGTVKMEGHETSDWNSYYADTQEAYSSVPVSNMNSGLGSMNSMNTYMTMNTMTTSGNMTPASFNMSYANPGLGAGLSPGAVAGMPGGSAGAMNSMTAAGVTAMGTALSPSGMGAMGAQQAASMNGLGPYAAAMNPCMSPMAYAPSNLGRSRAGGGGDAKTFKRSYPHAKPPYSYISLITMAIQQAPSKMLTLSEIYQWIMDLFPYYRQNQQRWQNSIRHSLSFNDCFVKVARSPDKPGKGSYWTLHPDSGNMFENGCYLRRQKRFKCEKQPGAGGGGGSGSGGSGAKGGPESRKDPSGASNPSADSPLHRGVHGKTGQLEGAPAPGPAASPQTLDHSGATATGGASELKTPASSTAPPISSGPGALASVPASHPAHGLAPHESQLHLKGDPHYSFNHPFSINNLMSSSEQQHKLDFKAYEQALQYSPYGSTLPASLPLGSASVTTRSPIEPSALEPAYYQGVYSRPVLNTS
Kind of data set: Ligand inhibition of DNA-protein interaction, CP/Probe2-AuNP hybrid sensor. The format is binding. Particulars: protein:ligand 1:8. The procedure:
For screening of ligand inhibition of the DNA-protein interaction (FIG. 4(B)), the ligand and protein were incubated at a molar ratio of 8:1 for 10-20 min at RT prior to the addition of dsDNA-AuNP in step (1) above. Steps (1), (2) and (3) were then repeated.
The proteins and each ligand were mixed at a ratio of 1:8 for 10 min. The protein-ligand pre-incubation solution was then mixed with dsDNA-AuNP and further incubated for 20 mins. The CP was then added as the last step. Positive and negative controls were also prepared, where the positive control was dsDNA-AuNP incubated with protein without ligand, and the negative control was dsDNA-AuNPs incubated without any protein added.

A further data set has as its system FoxA1 and AP2γ. Kind of data set: Ligand selectivity (positive = inhibitor, negative) listed in Table 3. The format is binding. The arrangement: key: Positive: A positive ligand refers to a ligand that can inhibit protein binding to DNA; Negative: a negative ligand is a ligand that does not interrupt the binding. From the text: 9 small ligands (as described in Table 3) were used to disrupt the DNA-protein interaction. […] It must be clearly understood that a particular ligand can bind strongly (with high affinity) to a certain protein but not inhibit the subsequent protein binding to DNA and vice versa. The main objective of this assay is to screen ligands that can interrupt protein binding to DNA regardless of their affinity to the protein. All of the ligands were kept as solutions in DMSO. Before using, they were thawed in a room temperature water bath.

The next data set has as its target T2, His-MBP-FoxA1 (Homo sapiens, UniProt P55317).
T2 construct: Full-length FoxA1 cDNA was cloned into a pHISMBP (Addgene) expression vector; made in house; host or cells: E. coli BL21 (DE3)
T2 sequence (P55317 1-472): T1 sequence (P55317 1-472)
Kind of data set: Fluorescence anisotropy (FA) with FAM-labelled DNA probes. Particulars: read-out: Binding constant (Kd). The procedure: Fluorescence anisotropy (FA): To determine the binding activity of His-MBP-FoxA1 to various FoxA1 probes containing its cognate DNA element, fluorescence anisotropy (FA) assay was utilized. The wildtype and two mutant probes for FoxA1, labelled with carboxyfluorescein (FAM), are as described earlier in Table 1. The assays were carried out in 384-well microplates (Corning) in which varying concentrations of protein were incubated with 2 nM of the labelled probe in PBS buffer for 20 min at room temperature (RT). To examine the effects of small molecule inhibitors on FoxA1 DNA binding, 125 nM of protein was pre-incubated with 5% DMSO, or 1 mM unlabelled probe, or 1.9 mM inhibitor for 1 h, at room temperature (RT), before the addition of 2 nM of the FAM labelled probe for another hour incubation.
Fluorescence anisotropy was measured using Synergy 2 Multi-Mode Microplate Reader with a 485/20-excitation and a 528/20-emission filter. The equilibrium dissociation constants for each wild-type probe were subsequently calculated by fitting the FoxA1 concentration vs. fluorescence polarization plot using Langmuir isotherm in Origin Pro 8 software. Standard error values (precision of the fitted values) were also obtained from the software after fitting.
(In general: Polarisation of emitted light reports the rotation of a fluorescent probe.)

Data set [2] deals with T1, FoxA1. Kind of data set: CP/dsDNA-AuNP hybrid sensor protein titration. The conditions noted are these: read-out: Binding constant (Kd). The procedure: Qualitatively, the affinity of FOxA1 to different DNA probes can be identified by the degree of change in fluorescence intensity. For measuring the binding affinity constant Kd, protein titration was conducted using protein:DNA molar ratios of 0:1 to 5:1. That is, in a 50 nM solution of dsDNA-AuNPs, protein was added to achieve a concentration of 0-250 nM. The respective fluorescence intensity of the subsequent CP emission was recorded and compared with a control reaction containing no protein (FIG. 12).

Data set [3] addresses T1, FoxA1. Kind of data set: Electrophoretic Mobility Shift Assay (EMSA), DNA probe binding. Particulars: read-out: Binding constant (Kd). From the text:
(§1) Electrophoretic Mobility Shift Assay (EMSA): Invitrogen Corporation, Panomics Inc., Pierce Biotechnology, Viagene Inc.

The target in data set [4] is T3, AP-2γ (Homo sapiens, UniProt Q92754). The description is as above. The conditions noted are these: read-out: Binding constant (Kd). The arrangement: made in house.
T3 sequence (Q92754 whole entry, species assumed): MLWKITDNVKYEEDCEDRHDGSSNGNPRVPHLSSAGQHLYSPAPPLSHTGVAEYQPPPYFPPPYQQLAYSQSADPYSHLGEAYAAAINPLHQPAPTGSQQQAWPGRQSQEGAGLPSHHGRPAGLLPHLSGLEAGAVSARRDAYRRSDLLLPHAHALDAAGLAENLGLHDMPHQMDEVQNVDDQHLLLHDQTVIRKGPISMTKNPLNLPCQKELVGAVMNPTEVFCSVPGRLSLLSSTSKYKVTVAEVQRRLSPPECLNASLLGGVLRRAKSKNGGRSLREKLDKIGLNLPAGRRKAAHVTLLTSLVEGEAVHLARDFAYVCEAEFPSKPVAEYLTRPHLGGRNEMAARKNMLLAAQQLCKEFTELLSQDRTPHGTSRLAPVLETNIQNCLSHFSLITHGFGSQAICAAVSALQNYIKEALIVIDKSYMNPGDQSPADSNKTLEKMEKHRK
Text: as §1

Data set [5] concerns the target T3, AP-2γ. Kind of data set: Fluorescence anisotropy (FA) with labelled DNA probes. Details: made in house. Particulars: read-out: Binding constant (Kd).
Data set [6] concerns the target T3, AP-2γ. Kind of data set: CP/dsDNA-AuNP hybrid sensor protein titration.
Experimental: The protein-DNA binding assay was conducted in three main steps (FIG. 4(A)): • 1) 50 nM dsDNA-AuNPs (referring to dsDNA concentration on the surface of AuNPs) was incubated with protein for 20-40 min at room temperature (RT).
Based on the relationship between protein concentration and fluorescence intensity, the binding constant, Kd, can be calculated using the equation: (F0−F)/(F−Fsat)=([protein]/Kd)^n. […] The slope, n, is the binding stoichiometry of protein to DNA.
The assay was also used to study a second transcription factor, AP-2γ (pI˜7.8), to test the applicability of the method. wtR3 and mtR3 were used as the probe DNA sequences (Table 2). […] From the relative decrease and increase in fluorescent intensity of CP with increasing concentration of AP-2γ, the binding affinity Kd and n were determined.
The mark [7] stands for this setting: CP/dsDNA-AuNPs hybrid sensor (ACP-430).
Where [8] appears, read: CP/dsDNA-AuNPs hybrid sensor (ACP-560).
Setting [9] is: CP/dsDNA-AuNPs hybrid sensor (CCP-410).

`Nc1ccc2nc3ccc(=O)cc-3n(-c3ccccc3)c2c1` [Ligand 4]: the “Ligand effect on FoxA1-DNA binding” value on FoxA1 [1] (ACP-430/Probe2-AuNP and CCP-410/Probe2-AuNP) is “negligible effect”. Further, the “Ligand influence on FoxA1-Probe2 binding” value at FoxA1 [1] (ACP-430/Probe2-AuNP) was “retain its binding capability”. Further, in the data set on FoxA1 and AP2γ, the “Selectivity for FoxA1 and AP2γ” value is reported as “Negative”.
On to “Probe1: FoxA1 DNA probe 5′-CACTTTGTTTGCAAAGC-3′ (SEQ ID NO: 1) with complementary strand; modified at the centre (antisense GCTTTGCAAACAAAGTG; DNA, backbone and methylation of C not given here; sense strand 5'-thiol-labelled, conjugated to gold nanoparticles)”, for which the Kd was 231 nM with His-MBP-FoxA1; 31.3 nM with FoxA1 [2] (setting [7]); 32.9 nM with FoxA1 [2] (setting [8]); 34.1 nM with FoxA1 [2] (setting [9]); 459 nM in the data set with FoxA1 [3].
In the same order, the values of “Probe2: Ideal FoxA1 DNA probe 5′-GTACTGTAAATAAAACT-3′ (SEQ ID NO: 3) with complementary strand (antisense AGTTTTATTTACAGTAC; DNA, backbone and methylation of C not given here; sense strand 5'-thiol-labelled, conjugated to gold nanoparticles)” are 16 nM, 4.47 nM, 5.76 nM, 5.02 nM and 47.8 nM.
“wtR3: GC rich wild-type DNA for AP-2γ, 5′-AAAGTGCCCAGAGCCCATG-3′ (SEQ ID NO: 7) with complementary strand (antisense CATGGGCTCTGGGCACTTT; DNA, backbone and methylation of C not given here; sense strand 5'-thiol-labelled, conjugated to gold nanoparticles)”: the Kd with AP-2γ [4] stood at 139 nM; with AP-2γ [5], 50.6 nM; in the data set with AP-2γ [6] (read-out: Binding constant (Kd), CP/dsDNA-AuNPs hybrid sensor (ACP-430)), 12.4 nM; in the data set with AP-2γ [6] (read-out: Binding constant (Kd), CP/dsDNA-AuNPs hybrid sensor (ACP-560)), 14.6 nM; with AP-2γ [6] (read-out: Binding constant (Kd), CP/dsDNA-AuNPs hybrid sensor (CCP-410)) it was 13 nM.

Values taken from US9977014B2, “Nanoparticle sensor for nucleic acid-protein interaction” (Agency for Science, Technology and Research, priority 2013, dated 2018).
